Data: paper PMC2583053, “snoRNA, a Novel Precursor of microRNA in Giardia lamblia” (PLoS Pathogens, 2008)

What was measured:
[1] = biological target: T1, GlAgo (Giardia Argonaute) (Giardia duodenalis, UniProt A8BCK6); assay: m7GpppG-Sepharose affinity retention, elution with free m7GpppG, anti-His Western blot; assay type: binding; details: 20 mM HEPES pH 7.4, 150 mM KCl, 1 mM EDTA, 2 mM DTT; washed with 0.1 mM GTP, eluted with 0.1 mM m7GpppG
T1 construct: gene Ago; full-length ORF from Giardia genomic DNA in pET28b, His-tagged (C-terminal His6 encoded by reverse primer), expressed in E. coli BL21(DE3) with chaperones, Ni-NTA purified; strain WB is printed for the trophozoites used, not for the cloning DNA
T1 sequence (A8BCK6 1-900): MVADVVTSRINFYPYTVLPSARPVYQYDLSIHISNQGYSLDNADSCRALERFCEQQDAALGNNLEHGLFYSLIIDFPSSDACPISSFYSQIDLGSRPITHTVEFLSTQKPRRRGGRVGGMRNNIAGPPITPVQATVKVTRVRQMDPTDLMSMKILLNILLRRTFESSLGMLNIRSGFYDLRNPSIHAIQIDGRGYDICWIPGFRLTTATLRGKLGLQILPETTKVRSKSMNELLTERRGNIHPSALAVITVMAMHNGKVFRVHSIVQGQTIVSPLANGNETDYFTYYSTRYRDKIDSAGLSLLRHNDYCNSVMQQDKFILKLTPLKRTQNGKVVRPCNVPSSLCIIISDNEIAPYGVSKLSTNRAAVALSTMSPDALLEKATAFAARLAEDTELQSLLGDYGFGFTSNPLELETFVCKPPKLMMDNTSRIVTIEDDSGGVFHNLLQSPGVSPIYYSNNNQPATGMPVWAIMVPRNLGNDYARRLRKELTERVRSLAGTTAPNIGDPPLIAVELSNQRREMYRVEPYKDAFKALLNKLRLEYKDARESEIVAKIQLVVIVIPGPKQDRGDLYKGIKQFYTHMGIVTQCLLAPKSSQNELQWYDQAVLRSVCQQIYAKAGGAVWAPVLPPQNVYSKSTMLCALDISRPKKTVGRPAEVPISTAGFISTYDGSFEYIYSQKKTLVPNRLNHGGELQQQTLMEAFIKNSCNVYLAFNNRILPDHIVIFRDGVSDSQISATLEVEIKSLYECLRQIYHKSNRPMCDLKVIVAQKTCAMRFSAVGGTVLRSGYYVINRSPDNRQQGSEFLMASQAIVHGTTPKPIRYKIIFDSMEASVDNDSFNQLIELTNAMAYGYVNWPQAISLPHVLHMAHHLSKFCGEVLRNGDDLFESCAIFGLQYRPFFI

[2] = biological target: T2, GlAgo (Giardia Argonaute) (Giardia lamblia, UniProt A8BCK6 1-900); assay: EMSA; 10 ng miR2; competed by unlabeled miR2 and by yeast RNA (no sequence specificity); EMSA: native 6% polyacrylamide gel, 10 ng radiolabeled miR2; binding buffer, pH and temperature not given in the material; details: protein: recombinant; tags: C-terminal 6xHis (encoded in reverse primer S6); single strand
T2 sequence: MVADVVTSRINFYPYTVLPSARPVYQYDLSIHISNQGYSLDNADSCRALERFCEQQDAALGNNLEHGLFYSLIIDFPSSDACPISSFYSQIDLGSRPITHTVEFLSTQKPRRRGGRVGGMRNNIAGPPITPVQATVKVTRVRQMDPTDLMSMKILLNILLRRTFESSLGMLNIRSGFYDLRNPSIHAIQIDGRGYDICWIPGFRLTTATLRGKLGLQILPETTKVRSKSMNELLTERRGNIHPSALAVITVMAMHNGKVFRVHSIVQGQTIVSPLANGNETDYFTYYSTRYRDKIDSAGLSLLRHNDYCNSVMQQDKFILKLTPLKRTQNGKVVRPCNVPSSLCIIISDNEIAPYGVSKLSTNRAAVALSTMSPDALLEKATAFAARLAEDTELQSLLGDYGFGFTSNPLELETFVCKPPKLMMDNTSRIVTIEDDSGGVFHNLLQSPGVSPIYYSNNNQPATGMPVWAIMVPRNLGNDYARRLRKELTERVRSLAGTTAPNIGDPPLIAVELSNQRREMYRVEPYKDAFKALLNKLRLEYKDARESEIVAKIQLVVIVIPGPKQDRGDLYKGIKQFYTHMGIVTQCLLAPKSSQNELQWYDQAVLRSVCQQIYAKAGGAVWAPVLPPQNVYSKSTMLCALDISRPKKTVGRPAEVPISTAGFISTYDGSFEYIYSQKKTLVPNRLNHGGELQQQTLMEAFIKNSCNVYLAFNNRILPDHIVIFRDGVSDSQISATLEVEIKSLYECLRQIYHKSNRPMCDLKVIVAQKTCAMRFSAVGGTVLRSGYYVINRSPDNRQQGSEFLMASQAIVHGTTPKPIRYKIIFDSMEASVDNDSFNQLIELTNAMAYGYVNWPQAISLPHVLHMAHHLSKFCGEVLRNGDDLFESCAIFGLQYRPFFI

## C[n+]1cn([C@@H]2O[C@H](COP(=O)(O)OP(=O)(O)OP(=O)(O)OC[C@H]3O[C@@H](n4cnc5c(=O)[nH]c(N)nc54)[C@H](O)[C@@H]3O)[C@@H](O)[C@H]2O)c2nc(N)[nH]c(=O)c21 [m^7GpppG]
[1]
  m7GpppG-Sepharose affinity retention, elution with free m7GpppG, anti-His Wester: the protein was specifically eluted off the Sepharose beads with m^7GpppG

## CAGCCUAAUCACCGCCCCUAUAGUCC (ssRNA) [miR2]
[2]
  binding result: binds
